Patent US20140031227A1, “HERBICIDAL COMPOSITIONS COMPRISING 4-AMINO-3-CHLORO-5-FLUORO-6-(4-CHLORO-2-FLUORO-3-METHOXYPHENYL) PYRIDINE-2-CARBOXYLIC ACID OR A DERIVATIVE THEREOF AND GLYPHOSATE OR GLUFOSINATE” (DOW AGROSCIENCES LLC, priority 2012, published 2014)

Key:
[1] = system: VIOTR (Viola tricolor L., wild violet); assay: Example IV postemergence foliar-applied mixtures, general weed control, greenhouse: VIOTR; type: in vivo; conditions: Compound A Benzyl Ester alone
Experimental: Seeds or nutlets of the desired test plant species were planted in Sun Gro Metro-Mix® 360 planting mixture, which typically has a pH of 6.0 to 6.8 and an organic matter content of about 30 percent, in plastic pots with a surface area of 84.6 square centimeters (cm^2). […] The plants were grown for 7-31 days (d) in a greenhouse with an approximate 15 hour (h) photoperiod which was maintained at about 23-29° C. during the day and 22-28° C. during the night. Nutrients (Peters Excel® 15-5-15 5-Ca 2-Mg) and water were added on a regular basis and supplemental lighting was provided with overhead metal halide 1000-Watt lamps as necessary. The plants were employed for testing when they reached the first, second, or third true leaf stage.
(§1) Treatments consisted of the acid or the benzyl ester of 4-amino-3-chloro-5-fluoro-6-(4-chloro-2-fluoro-3-methoxy-phenyl)pyridine-2-carboxylic acid (Compound A), each formulated as an SC, and various herbicidal components alone and in combination. Forms of compound A were applied on an acid equivalent basis.
Other herbicidal components were applied on an acid equivalent or active ingredient basis and included the 5-enolpyruvylshikimate-3-phosphate synthase (EPSPS)-inhibiting herbicide, glyphosate dimethylamine salt, formulated as Durango DMA® and the glutamine synthase (GS)-inhibiting herbicide, glufosinate ammonium, formulated as Ignite® 280.
For treatments comprised of formulated compounds, measured amounts of compounds were placed individually in 25 mL glass vials and diluted in a volume of 1.25% (v/v) Agri-dex crop oil concentrated to obtain 12× stock solutions. […] Application solutions were prepared by adding an appropriate amount of each stock solution (typically 1 mL) and diluted to the appropriate final concentrations with the addition of 10 mL of an aqueous mixture of 1.25% (v/v) Agri-dex crop oil concentrate so that the final spray solutions contained 1.25% (v/v) Agri-dex crop oil concentrate.
All stock solutions and applications solutions were visually inspected for compound compatibility prior to application. Compound requirements are based upon a 12 mL application volume at a rate of 187 liters per hectare (L/ha). […]
The treated plants and control plants were placed in a greenhouse as described above and watered by sub-irrigation to prevent wash-off of the test compounds. After approximately 3 weeks, the condition of the test plants as compared with that of the untreated plants was determined visually and scored on a scale of 0 to 100 percent where 0 corresponds to no injury or growth inhibition and 100 corresponds to complete kill. […]

[2] = system: SCPMA (Schoenoplectus maritimus (L.) Lye or Bolboschoenus maritimus (L.) Palla, sea clubrush); assay: Example II in-water applied mixtures, transplanted paddy rice weeds, greenhouse: SCPMA; type: in vivo; conditions: Compound A Acid alone
Experimental: Weed seeds or nutlets of the desired test plant species were planted in puddled soil (mud) prepared by mixing a shredded, non-sterilized mineral soil (50.5 percent silt, 25.5 percent clay, and 24 percent sand, with a pH of about 7.6 and an organic matter content of about 2.9 percent) and water at a 1:1 volumetric ratio. The prepared mud was dispensed in 365 mL aliquots into 16-ounce (oz.) non-perforated plastic pots with a surface area of 86.59 square centimeters (cm^2) leaving a headspace of 3 centimeters (cm) in each pot. Mud was allowed to dry overnight prior to planting or transplanting. Rice seeds were planted in Sun Gro MetroMix® 306 planting mixture, which typically has a pH of 6.0 to 6.8 and an organic matter content of about 30 percent, in plastic plug trays. Seedlings at the second or third leaf stage of growth were transplanted into 840 mL of mud contained in 32-oz. non-perforated plastic pots with a surface area of 86.59 cm^2 4 days prior to herbicide application. The paddy was created by filling the headspace of the pots with 2.5 to 3 cm of water. […] The plants were grown for 4-22 days in a greenhouse with an approximate 14 hr photoperiod which was maintained at about 29′C during the day and 26° C. during the night. Nutrients were added as Osmocote® (19:6:12, N:P:K+minor nutrients) at 2 g per 16-oz. pot and 4 g per 32-oz. pot. Water was added on a regular basis to maintain the paddy flood, and supplemental lighting was provided with overhead metal halide 1000-Watt lamps as necessary. The plants were employed for testing when they reached the first through fourth true leaf stage.
as §1, with “esters” for “the benzyl ester”, “(compound A)” for “(Compound A),”, “SC (suspension concentrate)” for “SC,”
For formulated compounds, a measured amount was placed in an individual 100 or 200 mL glass vial and was dissolved in a volume of 1.25% (v/v) Agri-Dex® crop oil concentrate to obtain application solutions.
Applications were made by injecting with a pipetter appropriate amounts of the application solutions, individually and sequentially, into the aqueous layer of the paddy. Control plants were treated in the same manner with the solvent blank. Applications were made so that all treated plant material received the same concentrations of acetone and crop oil concentrate.
The treated plants and control plants were placed in a greenhouse as described above and water was added as needed to maintain a paddy flood. After approximately 3 weeks the condition of the test plants as compared with that of the untreated plants was determined visually and scored on a scale of 0 to 100 percent where 0 corresponds to no injury or growth inhibition and 100 corresponds to complete kill.
Colby's equation was used to determine the herbicidal effects expected from the mixtures (Colby, S. R. 1967. Calculation of the synergistic and antagonistic response of herbicide combinations. Weeds 15:20-22.).

| Structure (SMILES) | Visual Weed Control (%) - 18 DAA VIOTR Obs ([1]; 2 gae/ha) [%] | Visual Weed Control (%) - 18 DAA VIOTR Obs ([1]; 4 gae/ha) [%] | Visual Weed Control (%) - 21 DAA SCPMA Obs ([2]; 8.75 gae/ha) [%] | Visual Weed Control (%) - 21 DAA SCPMA Obs ([2]; 17.5 gae/ha) [%] | Visual Weed Control (%) - 21 DAA SCPMA Obs ([2]; 35 gae/ha) [%] |
| --- | --- | --- | --- | --- | --- |
| COc1c(Cl)ccc(-c2nc(C(=O)OCc3ccccc3)c(Cl)c(N)c2F)c1F [Compound A Benzyl Ester] | 15 | 20 |  |  |  |
| COc1c(Cl)ccc(-c2nc(C(=O)O)c(Cl)c(N)c2F)c1F [Compound A Acid, 4-amino-3-chloro-6-(4-chloro-2-fluoro-3-methoxyphenyl)-5-fluoropyridine-2-carboxylic acid] |  |  | 0 | 0 | 0 |
